≈ marks a conversion by molar mass, not a printed value. Calls of active or inactive are those of the source. The calls are words filed in the database; no cut-off is given here.
Key:
[1] = test system: Mycobacteroides abscessus; assay: Antimicrobial activity against Mycobacterium abscessus 390S assessed as inhibition of biofilm formation at 64 ug/ml after 24 hrs; format: functional
[2] = test system: Mycobacteroides abscessus; assay: Antimicrobial activity against Mycobacterium abscessus 390S; format: functional
[3] = test system: Mycobacteroides abscessus; assay: Antimicrobial activity against Mycobacterium abscessus 390R after 96 hrs; format: functional
[4] = test system: Mycobacteroides abscessus; assay: Antimicrobial activity against Mycobacterium abscessus 390S assessed as inhibition of resuspended biofilm formation in replete medium; format: functional
[5] = test system: Mycobacteroides abscessus; assay: Antimicrobial activity against Mycobacterium abscessus 390S assessed as inhibition of planktonic cell growth in depleted medium; format: functional
[6] = test system: Mycobacteroides abscessus; assay: Antimicrobial activity against Mycobacterium abscessus 390S assessed as inhibition of planktonic cell growth in replete medium; format: functional
[7] = test system: Mycobacteroides abscessus; assay: Bacteriostatic activity against Mycobacterium abscessus 390V infected in human monocyte-derived macrophage at 10 times MIC; format: functional, organism-based
[8] = test system: Mycobacteroides abscessus; assay: Antimicrobial activity against Mycobacterium abscessus 390S assessed as inhibition of biofilm formation up to 128 ug/ml treated during lag-phase measured after 24 hrs; format: functional, organism-based
[9] = test system: Mycobacteroides abscessus; assay: Bacteriostatic activity against Mycobacterium abscessus 390V infected in human monocyte-derived macrophage assessed as inhibition of planktonic cell growth at 4 ug/ml treated 24 hrs postinfection; format: functional, organism-based
[10] = test system: Mycobacteroides abscessus; assay: Antimicrobial activity against Mycobacterium abscessus 390S infected in human monocyte-derived macrophage assessed as reduction in viable bacteria count at 10 times MIC by […]; format: functional, organism-based
[11] = test system: Mycobacteroides abscessus; assay: Antimicrobial activity against Mycobacterium abscessus 390S after 96 hrs; format: functional
[12] = test system: Mycobacteroides abscessus; assay: Antimicrobial activity against Mycobacterium abscessus 390S assessed as inhibition of biofilm formation up to 128 ug/ml treated during mid log-phase; format: functional
[13] = test system: Mycobacteroides abscessus; assay: Antimicrobial activity against Mycobacterium abscessus 390S assessed as inhibition of biofilm formation up to 512 ug/ml after 24 hrs; format: functional
[14] = test system: Mycobacteroides abscessus; assay: Bacteriostatic activity against Mycobacterium abscessus 390S infected in human monocyte-derived macrophage assessed as inhibition of planktonic cell growth at 4 ug/ml treated 24 hrs postinfection; format: functional, organism-based
[15] = test system: Mycobacteroides abscessus; assay: Bacteriostatic activity against Mycobacterium abscessus 390R infected in human monocyte-derived macrophage assessed as inhibition of planktonic cell growth at 4 ug/ml treated 24 hrs postinfection; format: functional, organism-based
[16] = test system: Mycobacteroides abscessus; assay: Antimicrobial activity against Mycobacterium abscessus 390V after 96 hrs; format: functional
[17] = test system: Mycolicibacterium fortuitum; assay: Antimicrobial activity against Mycobacterium fortuitum; format: functional
[18] = test system: Mycobacteroides abscessus; assay: Bacteriostatic activity against Mycobacterium abscessus 390S assessed as inhibition of planktonic cell growth up to 1024 ug/ml after 24 hrs; format: functional, organism-based

MIC [3] [µg/mL] | MIC [11] [µg/mL] | MIC [16] [µg/mL] | MIC [17] [µg/mL] | Structure (SMILES) | log10cfu [1] | MBC [2] [µg/mL] | MBC [4] [µg/mL] | MBC [5] [µg/mL] | MBC [6] [µg/mL] | Activity [7] | Activity [8] | Activity [9] | Activity [10] | log10cfu [12] | log10cfu [13] | Activity [14] | Activity [15] | Activity [18]
2 (≈ 3.42 µM) | – | – | – | NCC[C@H](O)C(=O)N[C@@H]1C[C@H](N)[C@@H](O[C@H]2O[C@H](CN)[C@@H](O)[C@H](O)[C@H]2O)[C@H](O)[C@H]1O[C@H]1O[C@H](CO)[C@@H](O)[C@H](N)[C@H]1O [AMIKACIN] | 1.1 | 64 (≈ 109 µM) | 64 (≈ 109 µM) | 128 (≈ 219 µM) | 32 (≈ 54.6 µM) | Active | – | – | – | – | – | – | – | –
– | 0.25 (≈ 0.334 µM) | – | – | CC[C@H]1OC(=O)[C@H](C)[C@@H](O[C@H]2C[C@@](C)(OC)[C@@H](O)[C@H](C)O2)[C@H](C)[C@@H](O[C@@H]2O[C@H](C)C[C@H](N(C)C)[C@H]2O)[C@](C)(OC)C[C@@H](C)C(=O)[C@H](C)[C@@H](O)[C@]1(C)O [CLARITHROMYCIN] | – | 16 (≈ 21.4 µM) | 256 (≈ 342 µM) | 256 (≈ 342 µM) | 16 (≈ 21.4 µM) | – | inactive | Active | Active | 1 | 0.6 | Active | Active | –
– | – | 8 (≈ 18.7 µM) | 6.25 (≈ 14.6 µM) | CO[C@@]1(NC(=O)Cc2cccs2)C(=O)N2C(C(=O)O)=C(COC(N)=O)CS[C@@H]21 [CEFOXITIN] | – | – | – | – | – | Active | – | – | – | – | – | – | – | Active
